Test results: US6495588B2, “Scytonemin and methods of using thereof” (The Regents of the University of California, priority 2000, dated 2002)

Legend:
[1] = test system: tissue myeloperoxidase activity; test: Myeloperoxidase (MPO) enzyme assay of mouse ear biopsies; format: in vivo; details: topical
Source text: To determine neutrophil influx into inflammed tissue region, the following assay may be conducted. Generally, myeloperoxidase (MPO), a neutrophil-specific marker released from primary granules, is indicative of the extravasation of pro-inflammation neutrophils from blood into the skin. Thus, to determine whether a test compound prevents, inhibits, modulates or attenuates inflammation related to an immunogenic inflammatory pathway or neutrophil influx, ear biopsies from treated and untreated mouse ears may be extracted and quantitated according to a modified method of Bradley, P.O., et al. (1982) J. Invest Dermatology 78:206-209, which is herein incorporated by reference. Specifically, ear bores from each treatment group from mouse ear edema assays from part A above were pooled and homogenized in 80 mM sodium phosphate buffer (pH 5.4) comprising 0.5% hexadecyltrimethylammonium bromide in a siliconized glass test tube for 1 minute at 0° C. using a Brinkman Polytron. The mixtures were centrifuged at 10,000×g at 4° C. for 30 minutes. 10 μl samples from each group were then assayed in a 96-well microtiter plate. The assay was initiated by adding 250 μl of o-dianisi-dine/phosphate reagent (0.28 mg of dianisidine added to 1 ml of 50 mM sodium phosphate comprising 0.0015 H2O2) to each well. After a 30 minute incubation at 37° C., the plates were read at 450 nm on a Molecular Devices microplate reader. Diluted control biopsies were utilized to develop a standard curve. Optical density values from drug-treated groups were compared to control groups to determine the % of control values of enzyme activity.

[2] = test system: PMA-induced cell proliferation in mouse ear epidermis; test: Mouse ear cell proliferation assay (IUdR incorporation, PCNA histology); format: in vivo
Procedure: To determine the efficacy of scytonemin as an anti-proliferative agent in vivo, the following assay was conducted. On day one, test compounds were delivered in 10 μl 20% DMSO, 80% acetone and applied to both the inner and outer pinnae of left ears (20 μl total) of male, Swiss Webster mice (Taconic Farms, Germantown, N.Y.). The right ears received only vehicle. One hour post test compound application, 4 μg/ear PMA (Sigma, St. Louis, Mo.) in 10 μl acetone was applied to the inner pinnae of each left ear and 10 μl acetone was applied to each right ear. Four hours post test compound application, the each test compound was again applied in the same manner. On day two, the test compounds were applied twice with a four-hour interval between each application. On day three, the test compounds and PMA were applied as they had been on day one.
One hour after the final test compound applications, each mouse was injected with 0.6 ml of a solution containing the thymidine analogue, 5-iodo-I^125-2′-deoxyuridine (IUdR) (2 μCi-I^125/mouse) and, to inhibit the endogenous deoxythymidilic acid synthetase, fluorodeoxyuridine (FUdR) ([…]). This IUdR/FUdR solution was made up in RPMI 1640 media. Eighteen hours post injection, the mice were euthanized via CO2 inhalation, the ears were excised and soaked individually in a 70% EtOH solution overnight.
IUdR incorporation was then measured using a Beckman Gamma counter, Model 5500B. […] Therefore, scytoneman compounds may be used to reduce, prevent, inhibit, modulate, or attenuate cell proliferation.
Additionally, immunostaining with Proliferating Cell Nuclear Antigen (PCNA) was used as a proliferation marker to identify proliferating cells. PCNA is a cofactor for DNAt […]. Expression levels of PCNA fluctuate over the cell cycle. […] Low expression levels of PCNA indicate non-cycling cells.
Histological analysis was used to determine the effect of scytonemin on the thickness of the epidermal layer of skin, the mitotic index of cells in the epidermal layer, the number of cells in the epidermis, and the amount of immune cell infiltration. PCNA antibodies were used to detect the presence of PCNA in cells and a peroxidase-Ni/DAB development system was used to stain PCNA-positive cells black and hematoxlin was used as a nuclear blue counterstain using conventional methods.

[3] = test system: rheumatoid synovial fibroblasts (RSFs); test: [3H]-thymidine incorporation assay, PDGF-BB stimulated rheumatoid synovial fibroblasts; format: cell-based, human; details: induced by platelet-derived growth factor (1 nM PDGF-BB); listed as SCY; read-out: IC50 rheumatoid synovial fibroblast proliferation
Procedure: To determine the effect of SCY on the proliferation of several cell types, proliferation was measured in response to growth factor or serum by tritiated thymidine uptake. Rheumatoid synovial fibroblasts (RSFs) obtained from Dr. Gene Mochan at PCOM (Philadelphia, Pa.), normal human lung fibroblasts (NHLFs) (Clonetics, San Diego, Calif.), human umbilical vein endothelial cells (HUVECs) (Clonetics, San Diego, Calif.), and Jurkat T cells (ATCC, Rockville, Md.) were plated in 96 well cell culture plates (Falcon, Franklin Lakes, N.J.). About 1.2×10^4 RSF cells/well and about 1×10^4 NHLF cells/well were plated in EMEM (Eagle's Minimum Essential Medium) (Sigma, St. Louis, Mo.) comprising 10 units penicillin-streptomycin (penstrep) (GibcoBRL, Grand Island, N.Y.) and 10% FBS. About 5×10^3 HUVEC cells/well were plated in CSC media (Cell Systems, Seattle, Wash.) with 10% FBS. Fibroblasts were allowed to adhere for about 6 to about 24 hours at 37° C., 5% CO2 and the media was changed to EMEM or CSC, 0.2% FBS and incubated for 24 hours. About 2×10^4 Jurkat T cells/well (ATCC, Rockville, Md.) were plated in RPMI (Gibco BRL, Grand Island, N.Y.), comprising 10% FBS and 10 units penstrep.
All cells were incubated with compound or vehicle (0.5% DMSO) for 15 minutes at room temperature. […] [^3H]-thymidine incorporation into the DNA was measured on a Packard Top-Count.

scytonemin
inhibition of MPO activity ([1]; 1 μg scytonemin): about 19%
inhibition of MPO activity ([1]; 5 μg scytonemin): ~18%
inhibition of MPO activity ([1]; 10 μg scytonemin (fourth dose listed)): ~90%
inhibition of MPO activity ([1]; 10 μg scytonemin (third dose listed)): ~68%
cells actively proliferating (PCNA staining) ([2]; +PMA 4 μg/ear, scytonemin 1 mg/ear, dexamethasone 0.15 mg/ear): about 60%
mitotic index of epidermal cells ([2]; PMA-treated mouse ears, 5% SCY): reduces the mitotic index
cell proliferation in vivo (IUdR incorporation) ([2]; topical, PMA 4 μg/ear): effectively reduced or prevented cell proliferation in vivo
IC50 [3]: ~1500 nM
